# Reference: patent US20080223379A1, “METHODS AND COMPOSITIONS FOR THE TREATMENT OR PROPHYLAXIS OF TENDON AND LIGAMENT INJURY” (DOBAVET GmbH, priority 2007, published 2008)
# System: tendon tissue damaged due to ruptured tendon fibrils and hematoma
# Test: Oral calcium dobesilate therapy of tendon damage in horses, sonographic follow-up
# Type: in vivo, horse
# Conditions: adult horses; 1400 mg with the food twice a day (corresponding to 4 mg/kg body weight/day); four months; sonography after one, two and four months; horses walked
# Protocol: Calcium dobesilate was administered with the food in a dose of 1400 mg per adult horse, twice a day each (corresponding to 4 mg/kg body weight/day). The therapy is carried out for four months. Therapy progress is documented sonographically after one month, after two months and after four months. During therapy, the horses are walked.
smiles,measurement,value
"O=S(=O)([O][Ca][O]S(=O)(=O)c1cc(O)ccc1O)c1cc(O)ccc1O [Calcium dobesilate, calcium dobesilate]",Sonographic therapy progression (structure and density of the tendon in the ultrasound image),the tendon sections hypoechogenic at the beginning of therapy show a physiological structure and density of the tendon in the ultrasound image at the end of therapy
